Experimental data reported in ChEMBL document CHEMBL1156261, “Evaluation of substituted N,N'-diarylsulfonamides as activators of the tumor cell specific M2 isoform of pyruvate kinase” (J Med Chem, 2010).
Calls of active or inactive are those of the source. The rule behind the calls is not given here.

biological target: Pyruvate kinase (Leishmania mexicana) (UniProt Q27686); assay: Activation of Leishmania mexicana pyruvate kinase by quantitative high throughput screening assay

SMILES | Activity
O=S(=O)(c1ccc(F)cc1)N1CCN(S(=O)(=O)c2ccc3c(c2)OCCO3)CC1 | inactive
O=C1CN(S(=O)(=O)c2c(F)cccc2F)CCN1S(=O)(=O)c1ccc2c(c1)OCCO2 | inactive
Nc1cccc(S(=O)(=O)N2CCN(S(=O)(=O)c3ccc4c(c3)OCCO4)CC2)c1 | inactive
O=S(=O)(c1ccc2c(c1)OCCO2)N1CCN(S(=O)(=O)c2cc(F)c(F)cc2F)CC1 | inactive
Cn1ccc2cc(S(=O)(=O)N3CCN(S(=O)(=O)c4c(F)cccc4F)CC3)ccc21 | inactive
O=S(=O)(NC1CCN(S(=O)(=O)c2c(F)cccc2F)C1)c1ccc2c(c1)OCCO2 (centres undefined) | inactive
O=S(=O)(c1cccc(C(F)(F)F)c1)N1CCN(S(=O)(=O)c2ccc3c(c2)OCCO3)CC1 | inactive
O=S(=O)(c1ccc2c(c1)OCCO2)N1CCCN(S(=O)(=O)c2c(F)cccc2F)CC1 | inactive
COc1ccc(S(=O)(=O)N2CCN(S(=O)(=O)c3ccc(OC)cc3)CC2)cc1 | inactive
O=S(=O)(c1ccc2c(c1)OCCO2)N1CCN(S(=O)(=O)c2c(F)ccc(O)c2F)CC1 | inactive
O=S(=O)(N[C@H]1CC[C@H](NS(=O)(=O)c2c(F)cccc2F)CC1)c1ccc2c(c1)OCCO2 | inactive
O=S(=O)(NCCCCCCNS(=O)(=O)c1c(F)cccc1F)c1ccc2c(c1)OCCO2 | inactive
COc1ccc(S(=O)(=O)N2CCN(S(=O)(=O)c3ccc4c(c3)OCCO4)CC2)cc1 | inactive
O=S(=O)(c1c(F)cccc1F)C1CCN(S(=O)(=O)c2ccc3c(c2)OCCO3)CC1 | inactive
C[C@@H]1CN(S(=O)(=O)c2ccc3c(c2)OCCO3)CCN1S(=O)(=O)c1c(F)cccc1F | inactive
O=S(=O)(NCCCCCNS(=O)(=O)c1c(F)cccc1F)c1ccc2c(c1)OCCO2 | inactive
O=C1CN(S(=O)(=O)c2ccc3c(c2)OCCO3)CCN1S(=O)(=O)c1c(F)cccc1F | inactive
O=S(=O)(c1ccc2c(c1)OCO2)N1CCN(S(=O)(=O)c2c(F)cccc2F)CC1 | inactive
COc1cc(F)c(S(=O)(=O)N2CCN(S(=O)(=O)c3ccc4c(c3)OCCO4)CC2)c(F)c1 | inactive
O=S(=O)(c1cccc(F)c1)N1CCN(S(=O)(=O)c2ccc3c(c2)OCCO3)CC1 | inactive
O=S(=O)(NCCNS(=O)(=O)c1c(F)cccc1F)c1ccc2c(c1)OCCO2 | inactive
O=S(=O)(NCCCNS(=O)(=O)c1c(F)cccc1F)c1ccc2c(c1)OCCO2 | inactive
O=S(=O)(c1ccc(Cl)cc1)N1CCN(S(=O)(=O)c2ccc3c(c2)OCCO3)CC1 | inactive
C[C@H]1CN(S(=O)(=O)c2c(F)cccc2F)CCN1S(=O)(=O)c1ccc2c(c1)OCCO2 | inactive
O=S(=O)(c1ccc2ccccc2c1)N1CCN(S(=O)(=O)c2c(F)cccc2F)CC1 | inactive
C[C@@H]1CN(S(=O)(=O)c2c(F)cccc2F)CCN1S(=O)(=O)c1ccc2c(c1)OCCO2 | inactive
O=S(=O)(NCCCCNS(=O)(=O)c1c(F)cccc1F)c1ccc2c(c1)OCCO2 | inactive

SMILES | Activity
COc1cc(F)c(S(=O)(=O)N2CCCN(S(=O)(=O)c3cccc(N)c3)CC2)c(F)c1 | inactive
O=S(=O)(c1c(F)cccc1F)N1CCN(S(=O)(=O)c2c(F)cccc2F)CC1 | inactive
O=S(=O)(NCC1CN(S(=O)(=O)c2c(F)cccc2F)C1)c1ccc2c(c1)OCCO2 | inactive
O=C(c1c(F)cccc1F)N1CCN(S(=O)(=O)c2ccc3c(c2)OCCO3)CC1 | inactive
COc1cc(F)c(S(=O)(=O)N2CCN(S(=O)(=O)c3cccc(N)c3)CC2)c(F)c1 | inactive
COc1cccc(S(=O)(=O)N2CCN(S(=O)(=O)c3ccc4c(c3)OCCO4)CC2)c1 | inactive
Nc1cccc(S(=O)(=O)N2CCCN(S(=O)(=O)c3ccc4c(c3)OCCO4)CC2)c1 | inactive
COc1ccc(S(=O)(=O)N2CCN(S(=O)(=O)c3c(F)cccc3F)CC2)cc1 | inactive
O=C(c1ccc2c(c1)OCCO2)N1CCN(S(=O)(=O)c2c(F)cccc2F)CC1 | inactive
O=S(=O)(c1ccc2c(c1)OCCO2)N1CCN(S(=O)(=O)c2ccccc2F)CC1 | inactive
O=S(=O)(c1ccc2c(c1)OCCO2)N1CCN(S(=O)(=O)c2c(F)cccc2F)CC1 | inactive
O=S(=O)(c1ccc2c(c1)OCCO2)C1CCN(S(=O)(=O)c2c(F)cccc2F)CC1 | inactive
O=S(=O)(c1ccc2c(c1)OCCO2)N1CCN(S(=O)(=O)c2ccccn2)CC1 | inactive
O=S(=O)(NCC1CN(S(=O)(=O)c2ccc3c(c2)OCCO3)C1)c1c(F)cccc1F | inactive
O=S(=O)(NC1CCN(S(=O)(=O)c2c(F)cccc2F)CC1)c1ccc2c(c1)OCCO2 | inactive
O=S(=O)(c1ccc2c(c1)OCCCO2)N1CCN(S(=O)(=O)c2c(F)cccc2F)CC1 | inactive
Nc1cccc(S(=O)(=O)N2CCN(S(=O)(=O)c3c(F)cccc3F)CC2)c1 | inactive
O=S(=O)(c1ccc2c(c1)OCCO2)N1CCN(S(=O)(=O)c2ccc3c(c2)OCCO3)CC1 | inactive
O=S(=O)(NC1CCN(S(=O)(=O)c2ccc3c(c2)OCCO3)C1)c1c(F)cccc1F (centres undefined) | inactive
CC1(C)CCc2cc(S(=O)(=O)N3CCN(S(=O)(=O)c4c(F)cccc4F)CC3)ccc2O1 | inactive
O=S(=O)(c1ccccc1)N1CCN(S(=O)(=O)c2ccc3c(c2)OCCO3)CC1 | inactive
O=S(=O)(N[C@H]1CC[C@@H](NS(=O)(=O)c2c(F)cccc2F)CC1)c1ccc2c(c1)OCCO2 | inactive
O=S(=O)(c1ccc2c(c1)OCCO2)N1CCN(S(=O)(=O)c2cccc[n+]2[O-])CC1 | inactive
N#Cc1ccc(S(=O)(=O)N2CCN(S(=O)(=O)c3ccc4c(c3)OCCO4)CC2)cc1 | inactive
O=S(=O)(NC1CCN(S(=O)(=O)c2ccc3c(c2)OCCO3)CC1)c1c(F)cccc1F | inactive
C[C@H]1CN(S(=O)(=O)c2ccc3c(c2)OCCO3)CCN1S(=O)(=O)c1c(F)cccc1F | inactive
O=S(=O)(c1ccc2c(c1)OCCO2)N1CCN(S(=O)(=O)c2ccc(F)cc2F)CC1 | inactive
